Test results published in patent US20240336658A1, “CYCLIC PEPTIDE AND PREPARATION METHOD AND USE THEREOF” (HANGZHOU HUIBO SCIENCE AND TECHNOLOGY CO., LTD, priority 2021, published 2024).

System: fibroblasts (NIH/3T3)
Assay: Scratch experiment, Hst1-MAD cyclic peptides (Example 23)
Type: cell-based
Conditions: dose required to achieve the same pharmaceutical effect in the scratch experiment
Text: In this example, the propargylglycine-Hst1-MAD cyclic peptide, the homopropargylglycine-Hst1-MAD cyclic peptide, the dihomopropargylglycine-Hst1-MAD cyclic peptide and the linear Hst1 prepared in Examples 13, 14, and 15, and the Hst1-MAD head-to-tail cyclic peptide or N-terminal and C-terminal cyclized peptide prepared by the amide bond cyclization method provided by the literature of for example Sortase A as a tool for high-yield histatin cyclization, Jan G. M. Bolscher, The FASEB Journal. Research Communication, were adopted respectively, the reaction time was recorded, the yield of the reaction product was detected by HPLC, the proportion of side reactions in the reaction product was calculated, and activity comparison was performed. The activity comparison method was to calculate the dose required to achieve the same pharmaceutical effect through a scratch experiment. […] After 12 hours and 24 hours of culture, the scratched area of each group was calculated by using imageJ (Rawak Software, Inc. Germany) software, and the scratch area at 0 hour was an initial scratch area. The scratch healing rate was calculated in the following manner: W % (scratch healing rate)=(W0−Wt)/W0×100%, where W0=an initial scratch area, and Wt=a remaining scratch area; and the results were as shown in Table 14.

Which “Dosage of agents required for scratch test” value does the source give for “Linear Hst1: linear peptide Hst1 (Histatin1), amino acid sequence SEQ ID NO.1” here?
Its value is 10 µM.
